Data published in PubChem BioAssay AID2060484 (Molecular Pharmacology Branch, DTP, NCI, 2025).

Tested on: SUM149PT spheroids with HUVEC/MSC, viability
Assay: Anticancer human tumor SUM149PT cell line growth inhibition [GQUAD];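 further: spheroids exposed to drugs for seven days before readout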;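 on viability, T/C: percent viability relative to DMSO vehicle control taken as 100%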
Settings: for IC50: curve of first compound; for viability, T/C: stronger effect = lower value
Summary of the method: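 Tumor cells were grown as complex spheroids with HUVEC endothelial cells and mesenchymal stem cells as stroma. G-quadruplex stabilizers were combined with targeted agents over half-log dilutions from near the clinical Cmax, or from 10 microM.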

[1] = second compound 0.0316 µM, first compound 0.0316 µM
[2] = second compound 0.0316 µM, first compound 0.316 µM
[3] = second compound 0.1 µM, first compound 0.0316 µM
[4] = second compound 0.1 µM, first compound 0.316 µM
[5] = second compound 0.316 µM, first compound 0.0316 µM
[6] = second compound 0.316 µM, first compound 0.316 µM
[7] = second compound 1 µM, first compound 0.0316 µM
[8] = second compound 1 µM, first compound 0.316 µM
[9] = second compound 3.16 µM, first compound 0.0316 µM
[10] = second compound 3.16 µM, first compound 0.316 µM
[11] = second compound 10 µM, first compound 0.0316 µM
[12] = second compound 10 µM, first compound 0.316 µM

How did the IC50 (second compound 0.0316 µM) turn out when `Cc1[nH]c2ccccc2c1CCNCc1ccc(/C=C/C(=O)NO)cc1` + Cc1[nH]c2ccc(F)cc2c1-c1nc2c3cccnc3c3ncccc3c2[nH]1 was run?
The IC50 was 260 nM.

What about the IC50 (second compound 0.1 µM) of the same molecule?
Its IC50 is > 316 nM.

What about the IC50 (second compound 0.316 µM) of the same molecule?
The IC50 was 299 nM.

And the IC50 (second compound 1 µM)?
The IC50 was 304 nM.

What about the IC50 (second compound 3.16 µM) of the same molecule?
Its IC50 is 308 nM.

And the IC50 (second compound 10 µM)?
The IC50 was 250 nM.

And the viability, T/C (second compound 0.0316 µM, first compound 0.000999 µM)?
Its viability, T/C is 98%.

What about the viability, T/C (second compound 0.0316 µM, first compound 0.00316 µM) of the same molecule?
The viability, T/C was 99.6%.

And the viability, T/C (second compound 0.0316 µM, first compound 0.00999 µM)?
Its viability, T/C is 103%.

And the viability, T/C [1]?
The viability, T/C was 102%.

And the viability, T/C (second compound 0.0316 µM, first compound 0.0999 µM)?
Its viability, T/C is 98%.

And the viability, T/C [2]?
The viability, T/C was 40.3%.

And the viability, T/C (second compound 0.1 µM, first compound 0.000999 µM)?
Its viability, T/C is 101%.

What about the viability, T/C (second compound 0.1 µM, first compound 0.00316 µM) of the same molecule?
Its viability, T/C is 97.5%.

What about the viability, T/C (second compound 0.1 µM, first compound 0.00999 µM) of the same molecule?
Its viability, T/C is 97.6%.

And the viability, T/C [3]?
The viability, T/C was 97.2%.

What about the viability, T/C (second compound 0.1 µM, first compound 0.0999 µM) of the same molecule?
The viability, T/C was 90.6%.

And the viability, T/C [4]?
The viability, T/C was 50.3%.

And the viability, T/C (second compound 0.316 µM, first compound 0.000999 µM)?
Its viability, T/C is 108%.

And the viability, T/C (second compound 0.316 µM, first compound 0.00316 µM)?
Its viability, T/C is 107%.

What about the viability, T/C (second compound 0.316 µM, first compound 0.00999 µM) of the same molecule?
The viability, T/C was 98%.

What about the viability, T/C [5] of the same molecule?
Its viability, T/C is 106%.

And the viability, T/C (second compound 0.316 µM, first compound 0.0999 µM)?
The viability, T/C was 87.6%.

And the viability, T/C [6]?
Its viability, T/C is 47.8%.

And the viability, T/C (second compound 1 µM, first compound 0.000999 µM)?
The viability, T/C was 106%.

And the viability, T/C (second compound 1 µM, first compound 0.00316 µM)?
The viability, T/C was 96.6%.

And the viability, T/C (second compound 1 µM, first compound 0.00999 µM)?
The viability, T/C was 93.6%.

What about the viability, T/C [7] of the same molecule?
The viability, T/C was 105%.

What about the viability, T/C (second compound 1 µM, first compound 0.0999 µM) of the same molecule?
The viability, T/C was 97.4%.

What about the viability, T/C [8] of the same molecule?
The viability, T/C was 48.3%.

What about the viability, T/C (second compound 3.16 µM, first compound 0.000999 µM) of the same molecule?
The viability, T/C was 96.8%.

And the viability, T/C (second compound 3.16 µM, first compound 0.00316 µM)?
Its viability, T/C is 89.4%.

What about the viability, T/C (second compound 3.16 µM, first compound 0.00999 µM) of the same molecule?
The viability, T/C was 81.4%.

What about the viability, T/C [9] of the same molecule?
Its viability, T/C is 93.3%.

What about the viability, T/C (second compound 3.16 µM, first compound 0.0999 µM) of the same molecule?
The viability, T/C was 89.4%.

What about the viability, T/C [10] of the same molecule?
The viability, T/C was 49.1%.

What about the viability, T/C (second compound 10 µM, first compound 0.000999 µM) of the same molecule?
The viability, T/C was 99.1%.

What about the viability, T/C (second compound 10 µM, first compound 0.00316 µM) of the same molecule?
Its viability, T/C is 88%.

What about the viability, T/C (second compound 10 µM, first compound 0.00999 µM) of the same molecule?
Its viability, T/C is 89.4%.

What about the viability, T/C [11] of the same molecule?
The viability, T/C was 88.5%.

And the viability, T/C (second compound 10 µM, first compound 0.0999 µM)?
The viability, T/C was 82.2%.

What about the viability, T/C [12] of the same molecule?
The viability, T/C was 41.4%.

Which IC50 (second compound 0.0316 µM) does the source give for `O=C(NO)c1cnc(N2CCN(S(=O)(=O)c3ccc4ccccc4c3)CC2)nc1` + Cc1[nH]c2ccc(F)cc2c1-c1nc2c3cccnc3c3ncccc3c2[nH]1 here?
The IC50 was 381 nM.

And the IC50 (second compound 0.1 µM)?
Its IC50 is 450 nM.

What about the IC50 (second compound 0.316 µM) of the same molecule?
Its IC50 is 539 nM.

And the IC50 (second compound 1 µM)?
Its IC50 is 617 nM.

And the IC50 (second compound 3.16 µM)?
The IC50 was 660 nM.

And the IC50 (second compound 10 µM)?
The IC50 was 801 nM.

What about the viability, T/C [1] of the same molecule?
The viability, T/C was 100%.

And the viability, T/C (second compound 0.0316 µM, first compound 0.1 µM)?
Its viability, T/C is 97.1%.

What about the viability, T/C [2] of the same molecule?
The viability, T/C was 59.4%.

What about the viability, T/C (second compound 0.0316 µM, first compound 1 µM) of the same molecule?
Its viability, T/C is 1.37%.

What about the viability, T/C (second compound 0.0316 µM, first compound 3.16 µM) of the same molecule?
Its viability, T/C is 0.22%.

What about the viability, T/C (second compound 0.0316 µM, first compound 10 µM) of the same molecule?
The viability, T/C was 2.18%.

And the viability, T/C [3]?
The viability, T/C was 102%.

What about the viability, T/C (second compound 0.1 µM, first compound 0.1 µM) of the same molecule?
Its viability, T/C is 102%.

And the viability, T/C [4]?
The viability, T/C was 67.8%.

And the viability, T/C (second compound 0.1 µM, first compound 1 µM)?
Its viability, T/C is 9.4%.

What about the viability, T/C (second compound 0.1 µM, first compound 3.16 µM) of the same molecule?
Its viability, T/C is 0.18%.

And the viability, T/C (second compound 0.1 µM, first compound 10 µM)?
The viability, T/C was 0.21%.

What about the viability, T/C [5] of the same molecule?
Its viability, T/C is 104%.

And the viability, T/C (second compound 0.316 µM, first compound 0.1 µM)?
The viability, T/C was 101%.

And the viability, T/C [6]?
Its viability, T/C is 78%.

And the viability, T/C (second compound 0.316 µM, first compound 1 µM)?
The viability, T/C was 17.8%.

And the viability, T/C (second compound 0.316 µM, first compound 3.16 µM)?
The viability, T/C was 0.15%.

What about the viability, T/C (second compound 0.316 µM, first compound 10 µM) of the same molecule?
The viability, T/C was 1.25%.

And the viability, T/C [7]?
Its viability, T/C is 105%.

What about the viability, T/C (second compound 1 µM, first compound 0.1 µM) of the same molecule?
Its viability, T/C is 98.1%.

What about the viability, T/C [8] of the same molecule?
Its viability, T/C is 78.8%.

And the viability, T/C (second compound 1 µM, first compound 1 µM)?
The viability, T/C was 30.1%.

And the viability, T/C (second compound 1 µM, first compound 3.16 µM)?
The viability, T/C was 0.16%.

What about the viability, T/C (second compound 1 µM, first compound 10 µM) of the same molecule?
The viability, T/C was 0.2%.

What about the viability, T/C [9] of the same molecule?
The viability, T/C was 107%.

And the viability, T/C (second compound 3.16 µM, first compound 0.1 µM)?
Its viability, T/C is 101%.

And the viability, T/C [10]?
The viability, T/C was 74.2%.

What about the viability, T/C (second compound 3.16 µM, first compound 1 µM) of the same molecule?
The viability, T/C was 38.8%.

And the viability, T/C (second compound 3.16 µM, first compound 3.16 µM)?
Its viability, T/C is 0.2%.

And the viability, T/C (second compound 3.16 µM, first compound 10 µM)?
Its viability, T/C is 0.4%.

And the viability, T/C [11]?
The viability, T/C was 106%.

And the viability, T/C (second compound 10 µM, first compound 0.1 µM)?
The viability, T/C was 93.5%.

And the viability, T/C [12]?
Its viability, T/C is 79.4%.

What about the viability, T/C (second compound 10 µM, first compound 1 µM) of the same molecule?
Its viability, T/C is 47.4%.

And the viability, T/C (second compound 10 µM, first compound 3.16 µM)?
Its viability, T/C is 0.29%.

What about the viability, T/C (second compound 10 µM, first compound 10 µM) of the same molecule?
The viability, T/C was 0.25%.
